According to patent US6235712A, “Non-aqueous polar aprotic peptide formulations” (ALZA Corporation, priority 2000, dated 2001):

Key:
[1] = Gelation of peptides in non-aqueous polar aprotic solvents; type: physicochemical; settings: formulated in non-aqueous polar aprotic solvents; no gelation even after 12 months at 37° C.
Protocol: No gelation was found even after 12 months at 37° C. […] Thus, these solvents have an anti-gellant effect.

[2] = aggregation, gelation and fibrillation; cited from earlier work

| gelation [1] | Molecule | physical stability in aqueous solution [2] |
| --- | --- | --- |
| do not gel | calcitonin | physically unstable |
| do not gel | CC(C)C[C@H](NC(=O)[C@@H](COC(C)(C)C)NC(=O)[C@H](Cc1ccc(O)cc1)NC(=O)[C@H](CO)NC(=O)[C@H](Cc1c[nH]c2ccccc12)NC(=O)[C@H](Cc1cnc[nH]1)NC(=O)[C@@H]1CCC(=O)N1)C(=O)N[C@@H](CCCNC(=N)N)C(=O)N1CCC[C@H]1C(=O)NNC(N)=O [goserelin] | – |
| do not gel | CCNC(=O)[C@@H]1CCCN1C(=O)[C@H](CCCNC(=N)N)NC(=O)[C@H](CC(C)C)NC(=O)[C@@H](CC(C)C)NC(=O)[C@H](Cc1ccc(O)cc1)NC(=O)[C@H](CO)NC(=O)[C@H](Cc1c[nH]c2ccccc12)NC(=O)[C@H](Cc1c[nH]cn1)NC(=O)[C@@H]1CCC(=O)N1 [leuprolide] | – |
